Common to all, as to format: biochemical
The target of one test is T1, sirt2 (Homo sapiens, UniProt Q8IXJ6).
T1 sequence (Q8IXJ6 56-356): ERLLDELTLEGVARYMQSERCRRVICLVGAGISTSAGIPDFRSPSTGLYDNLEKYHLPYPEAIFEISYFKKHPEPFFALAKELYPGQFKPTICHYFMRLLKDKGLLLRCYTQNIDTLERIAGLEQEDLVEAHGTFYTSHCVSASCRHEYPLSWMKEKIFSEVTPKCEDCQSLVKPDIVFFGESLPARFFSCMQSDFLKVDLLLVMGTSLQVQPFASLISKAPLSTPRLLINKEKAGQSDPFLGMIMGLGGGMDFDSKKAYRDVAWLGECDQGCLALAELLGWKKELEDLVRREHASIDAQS
Nature of the test: fluorescent deacetylase assay (ZMAL substrate, trypsin-coupled).

The target of the next test is T2, sirt1 (Homo sapiens, UniProt Q96EB6).
T2 construct: sirt1_133–747 (GST-tagged)
T2 sequence (Q96EB6 133-747): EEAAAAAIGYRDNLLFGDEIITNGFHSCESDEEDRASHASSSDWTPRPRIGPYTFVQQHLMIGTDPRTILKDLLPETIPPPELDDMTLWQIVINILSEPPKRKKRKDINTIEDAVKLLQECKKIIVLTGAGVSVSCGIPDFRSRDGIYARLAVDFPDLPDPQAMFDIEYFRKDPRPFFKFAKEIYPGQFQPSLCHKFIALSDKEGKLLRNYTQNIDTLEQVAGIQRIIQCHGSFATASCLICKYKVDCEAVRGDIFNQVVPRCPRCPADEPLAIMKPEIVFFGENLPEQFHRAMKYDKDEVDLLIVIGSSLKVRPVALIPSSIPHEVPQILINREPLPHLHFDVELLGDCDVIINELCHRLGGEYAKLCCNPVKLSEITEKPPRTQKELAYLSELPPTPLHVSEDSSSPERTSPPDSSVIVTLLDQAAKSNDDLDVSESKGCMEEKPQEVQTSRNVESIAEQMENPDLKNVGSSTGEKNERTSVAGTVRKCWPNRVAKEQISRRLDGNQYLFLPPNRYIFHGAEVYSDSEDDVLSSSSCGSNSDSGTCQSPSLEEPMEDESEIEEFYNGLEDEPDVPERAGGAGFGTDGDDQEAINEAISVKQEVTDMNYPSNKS
The description is as above.

The target in the next test is T3, sirt3 (Homo sapiens, UniProt Q9NTG7).
T3 construct: sirt3_118–395 (His6-tagged)
T3 sequence (Q9NTG7 118-395): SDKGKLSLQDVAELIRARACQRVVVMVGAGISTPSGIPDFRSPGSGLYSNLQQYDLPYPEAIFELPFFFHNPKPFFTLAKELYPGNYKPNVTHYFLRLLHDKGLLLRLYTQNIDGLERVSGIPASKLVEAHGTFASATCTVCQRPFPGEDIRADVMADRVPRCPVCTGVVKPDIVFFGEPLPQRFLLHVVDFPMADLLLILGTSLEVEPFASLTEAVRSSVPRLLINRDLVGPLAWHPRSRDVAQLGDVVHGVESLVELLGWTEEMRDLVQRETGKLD
Briefly: fluorescent deacetylase assay, % inhibition at […]. The conditions noted are these: read-out: Sirt 3 (μM or % Inhibition).

Broadly, the IC50 is the concentration that inhibits the measured activity by half. Low readings indicate greater potency in that assay, high ones weaker potency in that assay. The term inhibition denotes how much of the control response was suppressed. For the compound `COc1cc(O)c(C(=O)/C=C/c2ccc(O)cc2)cc1Oc1ccc(C(=O)/C=C/c2ccc(O)cc2)c(O)c1` [compound 8, rhuschalcone IV], the IC50 was found to be 48.5 ± 39.5 µM at sirt2 and 46.7 ± 6 µM against sirt1. At sirt3, the inhibition at 50 µM stood at 38%.
For `COc1cc(O)c(C(=O)/C=C/c2ccc(O)cc2)cc1Oc1ccc(C(=O)/C=C/c2ccc(O)cc2O)c(O)c1` [compound 9, rhuschalcone I analogue], the IC50 at sirt2 is 44.8 ± 5.1 µM; against sirt1 it was 40.8 ± 8.5 µM.

For the origin of these results see publication PMC6017733, “Identification of Bichalcones as Sirtuin Inhibitors by Virtual Screening and In Vitro Testing” (Molecules : A Journal of Synthetic Chemistry and Natural …, 2018).
